Source: patent US10752656B2, “Anti-microbial supramolecular structures” (Northwestern University, priority 2016, dated 2020)
Values after ≈ are worked out from the molar mass of the structure shown. Non-standard residues stand in square brackets, D forms with d. Residues, ends and D or L forms follow the SMILES beside them. *: point of attachment. Phe(F5) = N[C@@H](Cc1c(F)c(F)c(F)c(F)c1F)C(=O)O; Palmitoyl = CCCCCCCCCCCCCCCC(=O)*

How the values were obtained:
[1] = Rheological experiment on PA gels formed with CaCl2; assay type: physicochemical; conditions: 5 mM PA gelled with 0.2 M CaCl2, 100 Hz, 0.5% strain, 25° C.
Method: The mechanical property of the PAs was evaluated by performing rheological studies. 25 μL of 0.2 M CaCl2 were added to gel 250 μL of 5 mM PA MilliQ-water solution aged for 2 days on the rheometer. Tests were performed at 100 Hz with 0.5% strain at 25° C., using a 25 mm parallel plate with a 0.5 mm gap distance. The storage moduli used were taken from the time test at 5000 seconds. Frequency sweeps were done at a constant strain of 0.5%, and strain sweeps were done at a frequency of 100 Hz. The plateau modulus was determined as 10, 7.5, 7.5, and 2.8 kPa for parent PA, PA Z1, Z2, and Z3, respectively.

Staphylococcus aureus = assay type: cell-based
Method: S. aureus (ATCC 25923) (American Type Culture Collection, Manassas, Va.) was cultured in LB broth overnight at 37° C. The suspension of the overnight culture was inoculated in fresh LB broth and cultured under aerobic conditions until reaching an OD600 value of approximately 0.5 (exponential growth phase). The bacterial cells were harvested by centrifugation at 1,500×g for 10 min, washed thrice with PBS, and re-suspended in the appropriate solution for experiment. The bacterial cell suspensions were diluted to an OD600 value of 0.1, which corresponds to 1×10^7 CFU/mL for S. aureus. Before experiment, the bacterial cells were then diluted 1:10 with PBS unless otherwise noted.
The MIC values of peptide amphiphiles were determined in PBS. The MIC determination was made by the Mueller-Hinton (MH) agar plate method. Two-fold serial dilutions of test compound (peptide amphiphiles) solutions in PBS were firstly made in a 96-well microtiter plate. The test compound concentration ranged from 500 μM to 1 μM with 50 μL volume. Then, 50 μL of S. aureus (1×10^6 CFU/mL) suspended in PBS was added to each well for a final cell density of 5×10^5 CFU/mL. The samples were incubated for 3 hrs at 37° C., and then streaked onto MH agar plates. The plates were incubated overnight at 37° C. and the MIC value was recorded based on the lowest test compound concentration that inhibited colony growth.
The minimum inhibitory concentration (MIC) of the PAs against Staphylococcus aureus was determined to estimate their bioactivity as antimicrobial agents. The bacterial cell density is 5×10^5 CFU/mL, and the concentration of the PA solutions is ranging from 0.3 μM to 500 μM. […], the MIC value for PAs Z1 and Z2 was determined to be 4 μM, while inhibition of the growth of the bacterium after treatment by parent PA and PA Z3 at 500 μM was not observed.

plateau modulus [1] [kPa]	minimum inhibitory concentration (MIC) (Staphylococcus aureus) [µM]	SMILES
7.5	4 (≈ 5.17 µg/mL)	CCCCCCCCCCCCCCCC(=O)N[C@H](C(=O)N[C@@H](Cc1c(F)c(F)c(F)c(F)c1F)C(=O)N[C@H](C(=O)N[C@@H](C)C(=O)N[C@@H](C)C(=O)N[C@@H](C)C(=O)N[C@@H](CCC(=O)O)C(=O)N[C@@H](CCC(=O)O)C(=O)N[C@@H](CCC(=O)O)C(N)=O)C(C)C)C(C)C [PA Z2] (Palmitoyl-V[Phe(F5)]VAAAEEE-NH2; C-terminus assumed)
2.8	> 500	CCCCCCCCCCCCCCCC(=O)N[C@H](C(=O)N[C@H](C(=O)N[C@@H](Cc1c(F)c(F)c(F)c(F)c1F)C(=O)N[C@@H](C)C(=O)N[C@@H](C)C(=O)N[C@@H](C)C(=O)N[C@@H](CCC(=O)O)C(=O)N[C@@H](CCC(=O)O)C(=O)N[C@@H](CCC(=O)O)C(N)=O)C(C)C)C(C)C [PA Z3] (Palmitoyl-VV[Phe(F5)]AAAEEE-NH2; C-terminus assumed)
7.5	4 (≈ 5.17 µg/mL)	CCCCCCCCCCCCCCCC(=O)N[C@@H](Cc1c(F)c(F)c(F)c(F)c1F)C(=O)N[C@H](C(=O)N[C@H](C(=O)N[C@@H](C)C(=O)N[C@@H](C)C(=O)N[C@@H](C)C(=O)N[C@@H](CCC(=O)O)C(=O)N[C@@H](CCC(=O)O)C(=O)N[C@@H](CCC(=O)O)C(N)=O)C(C)C)C(C)C [PA Z1] (Palmitoyl-[Phe(F5)]VVAAAEEE-NH2; C-terminus assumed)
10	> 500	CCCCCCCCCCCCCCCC(=O)N[C@H](C(=O)N[C@H](C(=O)N[C@H](C(=O)N[C@@H](C)C(=O)N[C@@H](C)C(=O)N[C@@H](C)C(=O)N[C@@H](CCC(=O)O)C(=O)N[C@@H](CCC(=O)O)C(=O)N[C@@H](CCC(=O)O)C(N)=O)C(C)C)C(C)C)C(C)C [parent PA, reference compound] (Palmitoyl-VVVAAAEEE-NH2; C-terminus assumed)
